Like-named read-outs stand apart in the source and are kept apart here.
Legend:
DA D1 receptor = DA D1 receptor (Rattus norvegicus, UniProt P18901); test: biochemical; assay type: binding; conditions: IC50, D1 3H-SCH
DA D2 receptors = target: T1, DA D2 receptors (Rattus norvegicus, UniProt P61169); test: Inhibition of 3H-spiperone binding to DA D2 receptors in rat striatal membranes; conditions: rat striatal membranes, 3H-spiperone; read-out: Receptor Binding; IC50, D2 3H-Spi
T1 construct: DA D2 receptors in rat striatal membranes; from tissue; host or cells: rat striatal membranes

5-HT2 receptors = target: T2, 5-HT2 receptors (Rattus norvegicus, UniProt P14842); test: Inhibition of 3H-ketanserin binding to 5-HT2 receptors in membranes from rat cortex; conditions: Receptor Binding, IC50, 5-HT2 3H-Ket
T2 construct: 5-HT2 receptors in membranes from rat cortex; from tissue; host or cells: membranes from rat cortex
Procedure: Receptor binding studies.
5-HT2 receptors. Inhibition of ^3 H-ketanserin binding to 5-HT2 receptors in membranes from rat cortex was determined as described by Hyttel, J. Acta. Pharmacol. Toxicol.

[1] = rat striatal membranes, 3H-SCH 23390, read-out: Receptor Binding

T1 sequence (P61169 whole entry): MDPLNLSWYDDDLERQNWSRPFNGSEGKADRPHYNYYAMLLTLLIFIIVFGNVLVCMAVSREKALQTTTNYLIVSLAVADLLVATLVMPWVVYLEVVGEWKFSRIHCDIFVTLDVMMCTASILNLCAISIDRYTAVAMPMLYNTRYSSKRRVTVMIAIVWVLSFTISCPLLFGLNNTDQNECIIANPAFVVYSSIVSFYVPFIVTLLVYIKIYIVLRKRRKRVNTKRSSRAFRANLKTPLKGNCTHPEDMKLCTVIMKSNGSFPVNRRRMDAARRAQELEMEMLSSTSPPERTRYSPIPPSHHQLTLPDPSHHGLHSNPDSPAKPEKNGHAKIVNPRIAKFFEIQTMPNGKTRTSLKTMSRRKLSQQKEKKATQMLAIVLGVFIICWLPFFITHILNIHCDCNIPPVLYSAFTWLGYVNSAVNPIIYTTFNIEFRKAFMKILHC
T2 sequence (P14842 whole entry): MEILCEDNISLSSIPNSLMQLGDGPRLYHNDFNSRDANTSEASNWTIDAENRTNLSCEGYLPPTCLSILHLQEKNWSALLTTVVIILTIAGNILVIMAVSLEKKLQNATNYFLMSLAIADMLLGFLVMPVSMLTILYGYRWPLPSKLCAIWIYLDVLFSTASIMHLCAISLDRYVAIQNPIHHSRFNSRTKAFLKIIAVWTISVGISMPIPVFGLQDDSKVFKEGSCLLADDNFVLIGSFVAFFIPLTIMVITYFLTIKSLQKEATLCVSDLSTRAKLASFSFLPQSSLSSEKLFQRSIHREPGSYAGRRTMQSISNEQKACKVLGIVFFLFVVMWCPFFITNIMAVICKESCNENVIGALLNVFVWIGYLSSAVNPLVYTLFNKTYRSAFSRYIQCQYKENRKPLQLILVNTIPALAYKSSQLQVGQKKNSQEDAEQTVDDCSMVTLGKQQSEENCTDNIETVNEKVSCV
DA D1 receptor, sequence (P18901 whole entry): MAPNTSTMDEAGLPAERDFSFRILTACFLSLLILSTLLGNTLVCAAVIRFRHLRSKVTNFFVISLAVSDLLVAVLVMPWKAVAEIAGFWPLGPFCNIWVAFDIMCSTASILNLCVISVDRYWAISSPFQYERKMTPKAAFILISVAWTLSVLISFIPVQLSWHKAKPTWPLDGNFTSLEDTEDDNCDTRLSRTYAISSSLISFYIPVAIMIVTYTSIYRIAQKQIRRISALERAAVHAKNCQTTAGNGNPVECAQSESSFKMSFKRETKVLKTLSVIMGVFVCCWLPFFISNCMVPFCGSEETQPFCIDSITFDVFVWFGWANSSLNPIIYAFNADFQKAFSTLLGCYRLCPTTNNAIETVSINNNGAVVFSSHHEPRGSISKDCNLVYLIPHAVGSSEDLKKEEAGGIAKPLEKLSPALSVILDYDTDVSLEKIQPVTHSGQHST

Row | IC50 (DA D1 receptor; [1]) [nM] | IC50 (DA D2 receptors) [nM] | Compound | IC50 (5-HT2 receptors) [nM] | IC50 (DA D1 receptor; Receptor Binding) [nM]
1 | 2.4 | 12 | CC1CN([C@@H]2C[C@@H](c3ccc(F)cc3)c3ccc(Cl)cc32)CCN1C (mixture of isomers) [Compound 18, (±)-Trans-4-[6-chloro-3-(4-fluorophenyl)-2,3-dihydro-1H-inden-1-yl]-1,2-dimethylpiperazine] | – | –
2 | 8.8 | 38 | CCC1(CC)CN([C@@H]2C[C@@H](c3ccc(F)cc3)c3ccc(Cl)cc32)CCN1C (racemic) [Compound 24, (±)-Trans-4-[6-chloro-3-(4-fluorophenyl)-2,3-dihydro-1H-inden-1-yl]-2,2-diethyl-1-methylpiperazine] | – | –
3 | 50 | 33 | C[C@@H]1CN([C@@H]2C[C@@H](c3ccc(F)cc3)c3ccc(C(F)(F)F)cc32)C[C@H](C)N1 (racemic) [Compound 27, (±)-Trans-4-[6-trifluoromethyl-3-(4-fluorophenyl)-2,3-dihydro-1H-inden-1-yl]-cis-2,6-dimethylpiperazine] | – | –
4 | 1.8 | 5 | CN1CCN([C@@H]2C[C@@H](c3ccsc3)c3ccc(Cl)cc32)CC12CCCC2 (racemic) [Compound 30, (±)-Trans-9-[6-chloro-3-(3-thienyl)-2,3-dihydro-1H-inden-1-yl]-6-methyl-6,9-diazaspiro[4.5]decane] | – | –
5 | 6 | 24 | CN1CCN([C@@H]2C[C@@H](c3ccc(F)cc3)c3ccc(Cl)cc32)CC12CCCCC2 (racemic) [Compound 32, (±)-Trans-4-[6-chloro-3-(4-fluorophenyl)-2,3-dihydro-1H-inden-1-yl]-1-methyl-1,4-diazaspiro[5.5]undecan] | – | –
6 | 2.1 | 11 | Fc1ccc([C@@H]2C[C@@H](N3CCN4CCCCC4C3)c3cc(Cl)ccc32)cc1 (mixture of isomers) [Compound 34, (±)-Trans-2-[6-chloro-3-(4-fluorophenyl)-2,3-dihydro-1H-inden-1-yl]-octahydropyrido[1,2-a]pyrazine] | – | –
7 | 1.6 | 17 | CC(C)N1CCN([C@@H]2C[C@@H](c3ccc(F)cc3)c3ccc(Cl)cc32)CC1C (mixture of isomers) [Compound 41, (±)-Trans-4-[6-chloro-3-(4-fluorophenyl)-2,3-dihydro-1H-inden-1-yl]-2-methyl-1-(2-propyl)piperazine] | – | –
8 | 1.3 | 8.8 | CC(C)N1CCN([C@@H]2C[C@@H](c3ccc(F)cc3)c3ccc(Cl)cc32)CC12CCCC2 (racemic) [Compound 42, (±)-Trans-9-[6-chloro-3-(4-fluorophenyl)-2,3-dihydro-1H-inden-1-yl]-6-(2-propyl)-6,9-diazaspiro[4.5]decane] | – | –
9 | 1 | 3 | CC1(C)CN([C@@H]2C[C@@H](c3ccc(F)cc3)c3ccc(Cl)cc32)CCN1CCO (racemic) [Compound 43, (±)-Trans-4-[6-chloro-3-(4-fluorophenyl)-2,3-dihydro-1H-inden-1-yl]-2,2-dimethyl-1-piperazineethanol] | – | –
10 | 0.82 | 2.8 | CC1(C)CN([C@@H]2C[C@@H](c3ccsc3)c3ccc(Cl)cc32)CCN1CCO (racemic) [Compound 45, (±)-Trans-4-[6-chloro-3-(3-thienyl)-2,3-dihydro-1H-inden-1-yl]-2,2-dimethyl-1-piperazineethanol] | – | –
11 | 3.2 | 36 | CC(C)C1CN([C@@H]2C[C@@H](c3ccc(F)cc3)c3ccc(Cl)cc32)CCN1C (relative stereo) [Compound 21, Trans-4-[6-chloro-3-(4-fluorophenyl)-2,3-dihydro-1H-inden-1-yl]-1-methyl-2-(2-propyl)piperazine] | – | –
12 | 43 | 400 | CC(C)C1CN([C@@H]2C[C@@H](c3ccc(F)cc3)c3ccc(Cl)cc32)CCN1C (relative stereo) [Compound 22, Trans-4-[6-chloro-3-(4-fluorophenyl)-2,3-dihydro-1H-inden-1-yl]-1-methyl-2-(2-propyl)piperazine] | – | –
13 | – | – | CC1CN([C@@H]2C[C@@H](c3ccc(F)cc3)c3ccc(Cl)cc32)C(C)CN1C (relative stereo) [Compound 25, (±)-Trans-4-[6-chloro-3-(4-fluorophenyl)-2,3-dihydro-1H-inden-1-yl]-(1-trans-2,5-trimethyl)piperazine] | 3.4 | –
14 | – | – | C[C@@H]1CN([C@@H]2C[C@@H](c3ccc(F)cc3)c3ccc(Cl)cc32)C[C@H](C)N1C (relative stereo) [Compound 26, (±)-Trans-4-[6-chloro-3-(4-fluorophenyl)-2,3-dihydro-1H-inden-1-yl]-(1-cis-2,6-trimethyl)piperazine] | 3.3 | –
15 | – | – | CN1CCN([C@@H]2C[C@@H](c3ccc(F)cc3)c3ccc(Cl)cc32)CC12CCCC2 (relative stereo) [Compound 29] | 5.2 | –
16 | – | – | CC(C)N1CCN([C@@H]2C[C@@H](c3ccc(F)cc3)c3ccc(Cl)cc32)CC1(C)C (relative stereo) [Compound 40] | 4.1 | –
17 | – | – | OCCN1CCN([C@@H]2C[C@@H](c3ccc(F)cc3)c3ccc(Cl)cc32)CC12CCCC2 (relative stereo) [Compound 44] | 6 | –
18 | – | – | CN1CCN([C@@H]2C[C@@H](c3ccc(F)cc3)c3ccc(Cl)cc32)CC12CCCC2 (single isomer, unassigned) [+29, (+)-Trans-9-[6-chloro-3-(4-fluorophenyl)-2,3-dihydro-1H-inden-1-yl]-6-methyl-6,9-diazaspiro[4.5]decane] | 13 | –
19 | – | – | CN1CCN([C@@H]2C[C@@H](c3ccc(F)cc3)c3ccc(Cl)cc32)CC12CCCC2 (single isomer, unassigned) [Compound -29] | 4 | –
20 | – | – | CC(C)N1CCN([C@@H]2C[C@@H](c3ccc(F)cc3)c3ccc(Cl)cc32)CC1(C)C (single isomer, unassigned) [Compound -40] | 2.5 | –
21 | – | – | OCCN1CCN([C@@H]2C[C@@H](c3ccc(F)cc3)c3ccc(Cl)cc32)CC12CCCC2 (single isomer, unassigned) [Compound -44] | 2.5 | –
22 | 30 | 1100 | OC1CCN2CCN(C3CC(c4ccc(F)cc4)c4ccc(F)cc43)CC2C1 (centres unmarked) [Compound 35, 2-[6-fluoro-3-(4-fluorophenyl)-2,3-dihydro-1H-inden-1-yl]-octahydropyrido[1,2-a]-pyrazine-8-ol] | – | –

Row | Compound | IC50 (DA D1 receptor; [1]) [nM] | IC50 (DA D2 receptors) [nM] | IC50 (5-HT2 receptors) [nM] | IC50 (DA D1 receptor; Receptor Binding) [nM]
23 | CC1(C)CN([C@@H]2C[C@@H](c3ccc(F)cc3)c3ccc(Cl)cc32)CCN1 (racemic) [Compound 1, (±)-Trans-4-[6-chloro-3-(4-fluorophenyl)-2,3-dihydro-1H-inden-1-yl]-2,2-dimethylpiperazine] | 2.1 | 7.3 | 3.2 | –
24 | CN1CCN([C@@H]2C[C@@H](c3ccccc3)c3ccccc32)CC1(C)C (racemic) [Compound 3, (±)-Trans-4-[3-phenyl-2,3-dihydro-1H-inden-1-yl]-1,2,2-trimethyl-piperazine] | – | 140 | 21 | 13
25 | Cc1ccc2c(c1)[C@H](N1CCNC(C)(C)C1)C[C@H]2c1ccc(F)cc1 (racemic) [Compound 4, (±)-Trans-2,2-dimethyl-4-[6-methyl-3-(4-fluorophenyl)-2,3-dihydro-1H-inden-1-yl]piperazine] | 5.9 | 5.6 | 1.5 | –
26 | Cc1ccc2c(c1)[C@H](N1CCN(C)C(C)(C)C1)C[C@H]2c1ccc(F)cc1 (racemic) [Compound 5, (±)-Trans-4-[6-methyl-3-(4-fluorophenyl)-2,3-dihydro-1H-inden-1-yl]-1,2,2-trimethylpiperazine] | – | 4.8 | 3.4 | 2.1
27 | CC1(C)CN([C@@H]2C[C@@H](c3ccc(F)cc3)c3ccc(C(F)(F)F)cc32)CCN1 (racemic) [Compound 6, (±)-Trans-2,2-dimethyl-4-[6-trifluoromethyl-3-(4-fluorophenyl)-2,3-dihydro-1H-inden-1-yl]piperazine] | 2.8 | 5.2 | – | –
28 | CN1CCN([C@@H]2C[C@@H](c3ccc(F)cc3)c3ccc(C(F)(F)F)cc32)CC1(C)C (racemic) [Compound 7, (±)-Trans-4-[6-trifluoromethyl-3-(4-fluorophenyl)-2,3-dihydro-1H-inden-1-yl]-1,2,2-trimethylpiperazine] | – | 5.7 | 4.5 | 1.5
29 | CN1CCN([C@@H]2C[C@@H](c3ccc(F)cc3)c3ccc(Br)cc32)CC1(C)C (racemic) [Compound 8, (±)-Trans-4-[6-bromo-3-(4-fluorophenyl)-2,3-dihydro-1H-inden-1-yl]-1,2,2-trimethylpiperazine] | – | 8.6 | 3 | 1.8
30 | CN1CCN([C@@H]2C[C@@H](c3ccc(F)cc3)c3cc(Cl)c(Cl)cc32)CC1(C)C (racemic) [Compound 9, (±)-Trans-4-[5,6-dichloro-3-(4-fluorophenyl)-2,3-dihydro-1H-inden-1-yl]-1,2,2-trimethylpiperazine] | 18 | 44 | 5.9 | –
31 | CN1CCN([C@@H]2C[C@@H](c3ccc(F)cc3)c3c(Cl)cccc32)CC1(C)C (racemic) [Compound 15, (±)-Trans-4-[4-chloro-3-(4-fluorophenyl)-2,3-dihydro-1H-inden-1-yl]-1,2,2-trimethylpiperazine] | 45 | – | 29 | –
32 | CN1CCN([C@@H]2C[C@@H](c3ccc(F)cc3)c3ccc(Cl)cc32)CC12CCC2 (racemic) [Compound 28, (±)-Trans-8-[6-chloro-3-(4-fluorophenyl)-2,3-dihydro-1H-inden-1-yl]-5-methyl-5,8-diazaspiro[3.5]nonane] | – | 6.3 | 3 | –

Source: patent US5807855A, “1-piperazino-1,2-dihydroindene derivatives” (priority 1992, dated 1998)
